Test results taken from ChEMBL document CHEMBL4393671, “Design of a Cyclin G Associated Kinase (GAK)/Epidermal Growth Factor Receptor (EGFR) Inhibitor Set to Interrogate the Relationship of EGFR and GAK in Chordoma” (J Med Chem, 2019).
pIC50, pKd: −log10 of the molar value. Calls of active or inactive are those of the source. The calls are words filed in the database; no cut-off is given here.

Legend:
cells [1] = assay type: functional, cell-based; conditions: Homo sapiens, UCH2, 72 h
Description: Antiproliferative activity against human UCH2 cells measured after 72 hrs by alamar blue assay

cells [2] = assay type: functional, cell-based; conditions: Homo sapiens, UCH1, 72 h
Description: Antiproliferative activity against human UCH1 cells measured after 72 hrs by alamar blue assay

[3] = biological target: T1, Cyclin-G-associated kinase (Homo sapiens, UniProt O14976); assay: Binding affinity to wild-type human partial length GAK (G13 to Y338 residues) expressed in bacterial expression system by Kinomescan method
T1 sequence (O14976 whole entry): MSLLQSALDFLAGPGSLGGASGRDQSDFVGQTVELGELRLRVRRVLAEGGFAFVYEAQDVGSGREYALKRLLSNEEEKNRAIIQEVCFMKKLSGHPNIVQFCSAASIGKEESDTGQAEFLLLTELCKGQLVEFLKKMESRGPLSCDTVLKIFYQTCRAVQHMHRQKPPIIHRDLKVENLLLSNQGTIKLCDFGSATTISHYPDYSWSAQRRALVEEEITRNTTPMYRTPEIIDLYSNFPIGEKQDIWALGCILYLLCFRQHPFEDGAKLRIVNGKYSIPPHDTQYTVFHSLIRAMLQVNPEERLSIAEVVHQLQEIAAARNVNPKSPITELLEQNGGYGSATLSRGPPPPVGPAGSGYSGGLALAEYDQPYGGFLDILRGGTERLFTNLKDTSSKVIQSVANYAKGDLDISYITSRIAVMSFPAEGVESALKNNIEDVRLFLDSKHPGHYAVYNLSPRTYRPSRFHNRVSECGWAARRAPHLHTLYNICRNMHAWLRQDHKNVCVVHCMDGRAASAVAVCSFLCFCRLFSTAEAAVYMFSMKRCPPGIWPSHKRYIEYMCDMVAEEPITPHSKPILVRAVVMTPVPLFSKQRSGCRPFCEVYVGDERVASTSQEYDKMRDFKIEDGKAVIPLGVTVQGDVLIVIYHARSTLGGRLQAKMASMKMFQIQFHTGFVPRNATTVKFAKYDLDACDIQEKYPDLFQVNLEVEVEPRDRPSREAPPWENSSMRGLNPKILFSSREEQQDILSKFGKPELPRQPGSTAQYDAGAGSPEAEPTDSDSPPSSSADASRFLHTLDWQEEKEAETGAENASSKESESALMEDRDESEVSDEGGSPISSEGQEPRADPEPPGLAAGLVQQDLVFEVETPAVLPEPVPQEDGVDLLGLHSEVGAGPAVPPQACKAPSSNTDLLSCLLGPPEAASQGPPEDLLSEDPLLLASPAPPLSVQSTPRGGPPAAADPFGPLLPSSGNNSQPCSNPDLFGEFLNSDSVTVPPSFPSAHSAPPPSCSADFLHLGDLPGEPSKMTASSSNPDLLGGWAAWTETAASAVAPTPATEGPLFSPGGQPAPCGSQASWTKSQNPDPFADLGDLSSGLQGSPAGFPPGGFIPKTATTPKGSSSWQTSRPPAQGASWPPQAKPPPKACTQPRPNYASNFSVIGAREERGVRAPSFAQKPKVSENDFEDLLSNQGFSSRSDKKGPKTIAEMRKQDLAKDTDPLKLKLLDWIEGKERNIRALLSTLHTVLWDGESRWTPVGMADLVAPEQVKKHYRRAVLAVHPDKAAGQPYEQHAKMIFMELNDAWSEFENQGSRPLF

[4] = biological target: T1, Cyclin-G-associated kinase; assay: Inhibition of tracer 5 binding to human N-terminal nano luciferase-fused GAK expressed in HEK293 cells measured after 2 hrs by nanoBRET assay; assay type: cell-based
cells [5] = assay type: ADME, cell-based; conditions: Homo sapiens, WS1, 72 h
Description: Cytotoxicity against human WS1 cells measured after 72 hrs by alamar blue assay

cells [6] = assay type: functional, cell-based; conditions: Homo sapiens, 72 h
Description: Antiproliferative activity against human UCH14 cells measured after 72 hrs by alamar blue assay

cells [7] = assay type: functional, cell-based; conditions: Homo sapiens, 72 h; remark: listed apart in the source
Description: Antiproliferative activity against human UCH12 cells measured after 72 hrs by alamar blue assay

cells [8] = assay type: functional, cell-based; conditions: Homo sapiens, 72 h; remark: listed apart in the source
Description: Antiproliferative activity against human CH22 cells measured after 72 hrs by alamar blue assay

[9] = biological target: T2, Epidermal growth factor receptor (Homo sapiens, UniProt P00533); assay type: cell-based;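 on pIC50: human A431 cells pretreated 90 min, then EGF stimulated, sandwich ELISA measured decrease in EGF-induced receptor autophosphorylation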;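 on pKd: KINOMEscan competition binding with recombinant partial wild-type human EGFR (residues R669–V1011) produced in bacteria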
Description: Inhibition of EGFR in human A431 cells assessed as reduction in EGF-stimulated EGFR autophosphorylation preincuabted for 90 mins followed by EGF-stimulation by sandwich-ELISA

cells [10] = assay type: functional, cell-based; conditions: Homo sapiens, 72 h; remark: listed apart in the source
Description: Antiproliferative activity against human UCH7 cells measured after 72 hrs by alamar blue assay

[11] = biological target: T2, Epidermal growth factor receptor
Description: Binding affinity to wild-type human partial length EGFR (R669 to V1011 residues) expressed in bacterial expression system by Kinomescan method

cells [12] = assay type: functional, cell-based; conditions: Homo sapiens, 72 h; remark: listed apart in the source
Description: Antiproliferative activity against human UMCHOR1 cells measured after 72 hrs by alamar blue assay

[13] = Effect on total EGFR expression in human UCH2 cells at 1 to 10 uM measured after 4 hrs by Western blot analysis; assay type: ADME, cell-based
[14] = biological target: T3, Cyclin-G-associated kinase (Homo sapiens) (UniProt O14976); assay: Binding affinity to GAK in human SUM159 cell lysates by multiplexed inhibitor bead profiling-based LC-MS/MS analysis; assay type: subcellular; conditions: Lysate
T3 sequence (whole entry): T1 sequence (O14976 whole entry)

[15] = biological target: T2, Epidermal growth factor receptor; assay: Inhibition of EGFR in human UCH2 cells assessed as reduction in EGF-induced EGFR phosphorylation at Y1068 residue at 1 uM preincubated for 4 hrs followed by EGF--stimulation and measured after 15 mins by Western blot analysis relative to control; assay type: cell-based
[16] = biological target: T2, Epidermal growth factor receptor; assay: Inhibition of EGFR in human UCH1 cells assessed as reduction in EGF-induced EGFR phosphorylation at Y1068 residue at 1 uM preincubated for 4 hrs followed by EGF--stimulation and measured after 15 mins by Western blot analysis relative to control; assay type: cell-based
[17] = biological target: T2, Epidermal growth factor receptor; assay: Inhibition of EGFR in human UCH1 cells assessed as reduction in EGF-induced EGFR phosphorylation at Y1068 residue at 10 uM preincubated for 4 hrs followed by EGF--stimulation and measured after 15 mins by Western blot analysis relative to control; assay type: cell-based
[18] = Effect on total EGFR expression in human UCH1 cells at 1 to 10 uM measured after 4 hrs by Western blot analysis; assay type: ADME, cell-based
[19] = biological target: T2, Epidermal growth factor receptor; assay: Inhibition of EGFR in human UCH2 cells assessed as reduction in EGF-induced EGFR phosphorylation at Y1068 residue at 10 uM preincubated for 4 hrs followed by EGF--stimulation and measured after 15 mins by Western blot analysis relative to control; assay type: cell-based
[20] = biological target: T3, Cyclin-G-associated kinase (Homo sapiens); assay: Inhibition of tracer 5 binding to human N-terminal nano luciferase-fused GAK expressed in HEK293 cells at 5 uM measured after 2 hrs by nanoBRET assay relative to control; assay type: cell-based
[21] = biological target: T2, Epidermal growth factor receptor; assay: Binding affinity to wild-type human partial length EGFR (R669 to V1011 residues) expressed in bacterial expression system at 1 uM by Kinomescan method relative to control
[22] = biological target: Pyruvate kinase PKM (Homo sapiens) (UniProt P14618); assay: Binding affinity to PKM in human SUM159 cell lysates by multiplexed inhibitor bead profiling-based LC-MS/MS analysis; assay type: subcellular; conditions: Lysate
[23] = biological target: Mitotic checkpoint serine/threonine-protein kinase BUB1 (Homo sapiens) (UniProt O43683); assay: Binding affinity to BUB1 in human SUM159 cell lysates by multiplexed inhibitor bead profiling-based LC-MS/MS analysis; assay type: subcellular; conditions: Lysate
Sequence of Mitotic checkpoint serine/threonine-protein kinase BUB1 (Homo sapiens) (O43683 whole entry, looked up): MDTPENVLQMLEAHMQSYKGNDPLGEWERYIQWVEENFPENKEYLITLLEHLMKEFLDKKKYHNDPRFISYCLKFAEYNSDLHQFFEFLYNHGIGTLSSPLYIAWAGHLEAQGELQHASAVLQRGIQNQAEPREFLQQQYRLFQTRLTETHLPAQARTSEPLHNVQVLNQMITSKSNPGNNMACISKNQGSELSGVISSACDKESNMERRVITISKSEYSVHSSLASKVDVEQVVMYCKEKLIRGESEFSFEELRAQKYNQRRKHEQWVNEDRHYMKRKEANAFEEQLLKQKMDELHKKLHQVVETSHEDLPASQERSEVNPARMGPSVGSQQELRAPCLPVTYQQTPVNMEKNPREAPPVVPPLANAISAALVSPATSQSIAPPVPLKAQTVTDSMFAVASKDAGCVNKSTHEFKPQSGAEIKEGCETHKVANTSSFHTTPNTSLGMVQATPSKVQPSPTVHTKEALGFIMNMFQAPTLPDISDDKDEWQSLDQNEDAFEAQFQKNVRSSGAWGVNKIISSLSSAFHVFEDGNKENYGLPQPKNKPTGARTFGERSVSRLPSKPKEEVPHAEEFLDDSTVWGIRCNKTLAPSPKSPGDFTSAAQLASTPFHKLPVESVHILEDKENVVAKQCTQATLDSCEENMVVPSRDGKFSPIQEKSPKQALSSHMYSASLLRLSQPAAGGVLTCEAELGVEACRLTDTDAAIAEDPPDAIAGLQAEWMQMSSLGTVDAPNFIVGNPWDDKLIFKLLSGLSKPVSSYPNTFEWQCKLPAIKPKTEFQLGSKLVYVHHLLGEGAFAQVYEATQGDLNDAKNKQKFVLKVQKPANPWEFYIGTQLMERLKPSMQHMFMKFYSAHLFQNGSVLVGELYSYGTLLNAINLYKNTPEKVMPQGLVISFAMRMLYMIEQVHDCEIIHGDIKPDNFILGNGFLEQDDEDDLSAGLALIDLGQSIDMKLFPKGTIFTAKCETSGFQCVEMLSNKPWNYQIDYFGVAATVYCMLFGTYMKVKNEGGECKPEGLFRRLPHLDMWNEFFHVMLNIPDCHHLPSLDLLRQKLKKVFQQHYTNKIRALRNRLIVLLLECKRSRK

T2 sequence (P00533 whole entry, the tested form may be a part): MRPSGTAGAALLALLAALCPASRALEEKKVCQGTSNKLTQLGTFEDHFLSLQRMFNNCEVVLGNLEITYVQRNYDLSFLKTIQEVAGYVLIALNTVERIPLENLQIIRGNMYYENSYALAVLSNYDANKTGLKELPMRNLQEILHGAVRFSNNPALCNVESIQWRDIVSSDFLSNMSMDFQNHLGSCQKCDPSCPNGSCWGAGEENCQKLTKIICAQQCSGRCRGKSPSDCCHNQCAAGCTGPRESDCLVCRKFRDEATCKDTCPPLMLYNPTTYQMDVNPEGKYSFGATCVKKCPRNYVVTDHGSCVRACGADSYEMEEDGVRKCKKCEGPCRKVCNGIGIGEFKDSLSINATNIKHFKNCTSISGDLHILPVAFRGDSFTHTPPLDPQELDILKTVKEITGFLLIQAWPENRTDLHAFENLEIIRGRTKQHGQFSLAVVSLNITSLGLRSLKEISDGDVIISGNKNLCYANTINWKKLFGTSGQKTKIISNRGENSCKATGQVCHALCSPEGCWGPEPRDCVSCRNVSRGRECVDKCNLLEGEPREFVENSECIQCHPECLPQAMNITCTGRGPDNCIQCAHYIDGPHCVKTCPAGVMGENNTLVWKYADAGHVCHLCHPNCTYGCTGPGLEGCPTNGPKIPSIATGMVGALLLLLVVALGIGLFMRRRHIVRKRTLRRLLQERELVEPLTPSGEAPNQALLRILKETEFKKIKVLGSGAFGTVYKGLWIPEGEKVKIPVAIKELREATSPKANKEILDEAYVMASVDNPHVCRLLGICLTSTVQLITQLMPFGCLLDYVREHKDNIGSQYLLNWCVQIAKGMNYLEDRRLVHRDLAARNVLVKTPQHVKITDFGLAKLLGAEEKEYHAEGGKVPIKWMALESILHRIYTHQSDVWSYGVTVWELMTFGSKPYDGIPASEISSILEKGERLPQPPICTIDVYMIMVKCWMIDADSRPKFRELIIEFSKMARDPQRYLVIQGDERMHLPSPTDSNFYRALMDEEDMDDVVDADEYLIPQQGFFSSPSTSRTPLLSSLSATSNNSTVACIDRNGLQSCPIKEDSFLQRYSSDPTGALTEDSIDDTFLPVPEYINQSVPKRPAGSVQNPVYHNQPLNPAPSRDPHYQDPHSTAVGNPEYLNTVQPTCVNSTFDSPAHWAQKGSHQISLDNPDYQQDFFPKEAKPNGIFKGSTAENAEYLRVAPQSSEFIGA
Sequence of Pyruvate kinase PKM (Homo sapiens) (P14618 2-531 limits assumed): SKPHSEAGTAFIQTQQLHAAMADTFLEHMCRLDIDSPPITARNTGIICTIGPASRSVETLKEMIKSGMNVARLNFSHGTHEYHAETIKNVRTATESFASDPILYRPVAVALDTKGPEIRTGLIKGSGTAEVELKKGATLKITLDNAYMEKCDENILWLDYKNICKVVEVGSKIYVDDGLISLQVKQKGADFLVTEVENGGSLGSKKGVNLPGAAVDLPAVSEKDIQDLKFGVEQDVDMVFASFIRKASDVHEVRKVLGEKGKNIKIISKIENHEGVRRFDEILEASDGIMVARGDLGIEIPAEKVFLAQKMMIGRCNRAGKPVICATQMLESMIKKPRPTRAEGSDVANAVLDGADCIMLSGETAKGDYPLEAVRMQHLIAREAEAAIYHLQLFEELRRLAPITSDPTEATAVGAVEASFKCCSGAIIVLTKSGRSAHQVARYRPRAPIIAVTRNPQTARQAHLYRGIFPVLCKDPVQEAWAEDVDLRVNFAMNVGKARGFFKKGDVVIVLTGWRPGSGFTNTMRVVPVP

Structure (SMILES) | pIC50 (cells [1]) | pIC50 (cells [2]) | pKd [3] | pIC50 [4] | pIC50 (cells [5]) | pIC50 [9] | pKd [11] | further results
CCOc1cc2ncc(C#N)c(Nc3ccc(OCc4ccccn4)c(Cl)c3)c2cc1NC(=O)/C=C/CN(C)C [NERATINIB] | 5.62 | 5.26 | – | – | – | – | – | –
COc1cc2ncnc(Nc3cc(OC)c(OC)c(OC)c3)c2cc1OC | < 5.00 | 5.14 | 8.00 | 6.46 | 4.55 | – | – | –
COc1cc2nccc(Nc3cc(OC)c(OC)c(OC)c3)c2cc1OC | 4.60 | 4.96 | – | 7.64 | 4.85 | 4.57 | 6.39 | pIC50 (cells [6]): 4.72; pIC50 (cells [7]): 4.48; pIC50 (cells [8]): 4.92; pIC50 (cells [10]): 4.52; pIC50 (cells [12]): 4.62
C#Cc1cccc(Nc2ncnc3cc(OC)c(OC)cc23)c1 | < 4.30 | 6.04 | 8.17 | 7.14 | 5.36 | – | 9.26 | pIC50 (cells [6]): < 4.30; pIC50 (cells [7]): < 4.30; pIC50 (cells [8]): < 4.30; Activity [13]: Non-Toxic; Activity [14]: Active; inhibition [15]: 100%; pIC50 (cells [10]): 4.64; inhibition [16]: 63.4%; inhibition [17]: 100%; Activity [18]: Non-Toxic; inhibition [19]: 100%; pIC50 (cells [12]): 4.74
COc1cc(Nc2ncnc3ccc(C(F)(F)F)cc23)cc(OC)c1OC | < 4.30 | 4.30 | 6.72 | – | 4.35 | < 4.30 | 5.21 | inhibition [20]: 60%
CNC(=O)CN1CCC(Oc2cc3c(Nc4cccc(Cl)c4F)ncnc3cc2OC)CC1 [SAPITINIB] | 5.24 | 6.38 | – | – | – | – | – | –
COc1cc(Nc2ccnc3ccc(Br)cc23)cc(OC)c1OC | < 4.30 | < 4.30 | – | – | 4.96 | < 4.30 | – | Activity [21]: < 50%
COc1cc2ncnc(Nc3cccc(Br)c3)c2cc1OC | 4.59 | 6.18 | – | 6.59 | 5.01 | – | – | –
COc1cc2ncc(C#N)c(Nc3cccc(Br)c3)c2cc1OC | < 4.30 | 5.06 | 7.92 | 6.89 | 4.85 | 7.05 | 8.62 | –
COCCOc1cc2ncnc(Nc3cc(OC)c(OC)c(OC)c3)c2cc1OCCOC | < 4.30 | 4.60 | 6.82 | 5.59 | < 4.30 | 5.62 | 7.28 | –
COc1cc(Nc2c(C#N)cnc3cc(OCCCN4CCN(C)CC4)c(OC)cc23)c(Cl)cc1Cl [BOSUTINIB] | 4.44 | 4.82 | – | – | – | – | – | –
COc1cc2ncnc(Nc3ccc(F)c(Cl)c3)c2cc1NC(=O)/C=C/CN1CCCCC1 [DACOMITINIB ANHYDROUS] | 5.57 | 7.30 | – | – | – | – | – | –
COc1cc2nccc(Nc3cccc(Br)c3)c2cc1OC | 5.10 | 5.44 | 6.62 | 6.29 | 5.54 | – | – | pIC50 (cells [6]): < 4.30; pIC50 (cells [7]): < 4.30; pIC50 (cells [8]): 5.19; Activity [14]: Active; Activity [22]: Active; pIC50 (cells [10]): < 4.30; Activity [23]: Active
COc1cc2/c(=N/c3ccc(Br)cc3F)nc[nH]c2cc1OCC1CCN(C)CC1 [VANDETANIB] | 5.38 | 6.00 | – | – | – | – | – | –
C=CC(=O)N1CCC(Oc2cc3c(Nc4ccc(Cl)c(Cl)c4F)ncnc3cc2OC)CC1 [POZIOTINIB] | 5.09 | 6.96 | – | – | – | – | – | –
COc1cc(Nc2cc(C)nc3ccc(C(F)(F)F)cc23)cc(OC)c1OC | < 4.30 | 4.43 | – | – | 4.31 | < 4.30 | – | inhibition [20]: 0%
CN(C)C/C=C/C(=O)Nc1cc2c(Nc3ccc(F)c(Cl)c3)ncnc2cc1O[C@H]1CCOC1 [AFATINIB] | 5.19 | 7.00 | – | – | – | – | – | –
COc1cc(Nc2ccnc3ccc(C(F)(F)F)cc23)cc(OC)c1OC | 4.48 | < 4.30 | – | – | 4.68 | < 4.30 | – | Activity [21]: < 50%
C=CC(=O)Nc1cc2c(Nc3ccc(F)c(Cl)c3)ncnc2cc1OCCCN1CCOCC1 [CANERTINIB] | 4.77 | 7.10 | – | – | – | – | – | –
CC(C)(C)S(=O)(=O)c1cc2c(Nc3ccc4scnc4c3)ncnc2cc1OCCO | 4.52 | < 4.30 | – | – | < 4.30 | < 4.30 | – | inhibition [20]: 0%
C#Cc1cccc(Nc2ccnc3cc(OCCOC)c(OCCOC)cc23)c1 | 4.80 | 5.12 | 5.92 | – | 4.92 | 6.47 | 6.41 | –
CN1CCN(CCOc2cc(OC3CCOCC3)c3c(Nc4c(Cl)ccc5c4OCO5)ncnc3c2)CC1 [SARACATINIB] | 4.55 | 5.37 | – | – | – | – | – | –
COc1cc2c(Nc3ccc(Cl)c(Cl)c3F)ncnc2cc1OC[C@@H]1C[C@@H]2CN(C)C[C@@H]2C1 [TESEVATINIB] | 5.96 | 6.82 | – | – | – | – | – | –
C#Cc1cccc(Nc2c(C#N)cnc3cc(OC)c(OC)cc23)c1 | < 4.30 | 4.77 | 8.59 | 7.51 | < 4.30 | 7.21 | 8.74 | –
COc1cc2ncnc(Nc3ccc(OCc4cccc(F)c4)c(Cl)c3)c2cc1OC | < 4.30 | 4.89 | 5.30 | – | < 5.00 | > 7.82 | 8.89 | inhibition [20]: 12%
COc1cc(N(C)c2ccnc3ccc(C(F)(F)F)cc23)cc(OC)c1OC | < 4.30 | < 4.30 | – | – | < 4.30 | 5.66 | – | inhibition [20]: 7%
CCOc1cc2ncc(C#N)c(Nc3ccc(F)c(Cl)c3)c2cc1NC(=O)/C=C/CN(C)C [PELITINIB] | 5.80 | 7.05 | – | – | – | – | – | –
COc1cc2ncc(C#N)c(Nc3cc(OC)c(OC)c(OC)c3)c2cc1OC | < 5.00 | 4.96 | 9.38 | 8.62 | < 4.30 | 5.15 | 8.13 | –
